Among the data in PubChem BioAssay AID1259408 (Genetic Toxicology Data Bank (GENE-TOX), 2018) are mutagenic call and call values, retold here.

This data set deals with GENE-TOX genotoxicity assays, various organisms and cells. The data set can be described thus: GENE-TOX mutagenicity studies. The following applies: for call: Assay Type: In vivo carcinogenicity studies.

SMILES strings stand for the structures. The source made the active and inactive calls. No rule for the calls is given here.

Regarding `O=NN1CCCC1`, the mutagenic call was “active; positive” (Species/Cell Type: Chinese hamster lung (V79) cells, Assay Type: Forward gene mutation at the HPRT or ouabain locus, Assay Code: V79+, Evaluation Type: Evaluation A (Pre-1980)); “active; positive” (Species/Cell Type: Nonhuman, Assay Type: Sister-chromatid exchange (SCE) in vivo, Assay Code: SC3+, Evaluation Type: Evaluation B (Post-1980)); “active; positive” (Species/Cell Type: Rat primary hepatocytes, Assay Type: Unscheduled DNA synthesis (UDS) in vitro, DNA effects, Assay Code: UDP+D, Dose Response: With dose response, Evaluation Type: Evaluation A (Pre-1980)); “active; positive” (Species/Cell Type: Salmonella typhimurium (one or more of the five standard strains: TA98, TA100, TA1535, TA1537, and TA1538), Assay Type: Histidine reverse gene mutation, Ames assay, Assay Code: SAL+*, Activation: With metabolic activation, Evaluation Type: Evaluation A (Pre-1980)). The call (Species/Cell Type: Nonhuman, Assay Code: CCG+, Evaluation Type: Evaluation A (Pre-1980)) was “active; positive”.

With `Nc1cccc2cccnc12`, the mutagenic call reads like this: (Species/Cell Type: Drosophila melanogaster, Assay Type: Sex-linked recessive lethal gene mutation, Assay Code: SRLT, Evaluation Type: Evaluation A (Pre-1980)) “no conclusion”; (Species/Cell Type: Saccharomyces cerevisiae, Assay Type: Forward gene mutation, Assay Code: YEF-*, Activation: With metabolic activation, Evaluation Type: Evaluation A (Pre-1980)) “inactive; negative”; (Species/Cell Type: Saccharomyces cerevisiae, Assay Type: Mitotic recombination or gene conversion, Assay Code: YEC-*, Activation: With metabolic activation, Evaluation Type: Evaluation A (Pre-1980)) “inactive; negative”; (Species/Cell Type: Saccharomyces cerevisiae, Assay Type: Mitotic recombination or gene conversion, Assay Code: YEH-*, Activation: With metabolic activation, Evaluation Type: Evaluation A (Pre-1980)) “inactive; negative”; (Species/Cell Type: Saccharomyces cerevisiae, Assay Type: Reverse gene mutation, Assay Code: YER+, Evaluation Type: Evaluation A (Pre-1980)) “active; positive”; (Species/Cell Type: Salmonella typhimurium (one or more of the five standard strains: TA98, TA100, TA1535, TA1537, and TA1538), Assay Type: Histidine reverse gene mutation, Ames assay, Assay Code: SAL+, Evaluation Type: Evaluation A (Pre-1980)) “active; positive”.

On to `CN(N=O)C(=O)NC(N)=O`, for which the mutagenic call (Species/Cell Type: Arabidopsis species, Assay Type: Gene mutation, Assay Code: ARM+D, Dose Response: With dose response, Evaluation Type: Evaluation A (Pre-1980)) is “active; positive”.

For `Cc1c2ccncc2c(C)c2c1[nH]c1ccccc12`, the mutagenic call (Species/Cell Type: Chinese hamster ovary (CHO) cells, Assay Type: Forward gene mutation at the HPRT locus, Assay Code: CHO+, Evaluation Type: Evaluation B (Post-1980)) was “active; positive” and the mutagenic call (Species/Cell Type: Nonhuman, Assay Type: Sister-chromatid exchange (SCE) in vitro, Assay Code: SC2+, Evaluation Type: Evaluation B (Post-1980)) was “active; positive”.

As for `O=P1(N(CCCl)CCCl)NC(OO)CCO1` (stereo not given), the mutagenic call was “active; positive” (Species/Cell Type: Human lymphocytes, Assay Type: Sister-chromatid exchange (SCE) in vitro, Assay Code: SCL+D, Dose Response: With dose response, Evaluation Type: Evaluation B (Post-1980)) and “active; positive” (Species/Cell Type: Human, Assay Type: Sister-chromatid exchange (SCE) in vitro, Assay Code: SC1+D, Dose Response: With dose response, Evaluation Type: Evaluation B (Post-1980)).

As for `CC(=O)N(O)c1ccc2c(ccc3ccccc32)c1`, the mutagenic call (Species/Cell Type: Human diploid fibroblasts, Assay Type: Unscheduled DNA synthesis (UDS) in vitro, DNA effects, Assay Code: UDH+, Evaluation Type: Evaluation A (Pre-1980)) is “active; positive”. Where the note is “Species/Cell Type: Nonhuman, Assay Code: CCG+L, Evaluation Type: Evaluation A (Pre-1980)”, the call was “active; positive”.

For the compound `OCCN1CN(CCO)CN(CCO)C1`, the mutagenic call (Species/Cell Type: Mammalian polychromatic erythrocytes, Assay Type: Micronucleus test, chromosome aberrations, Assay Code: MNTT, Evaluation Type: Evaluation A (Pre-1980)) is on record as “no conclusion”.

On to `O=C(O)[C@@H]1[C@H](C(=O)O)[C@H]2CC[C@@H]1O2`, for which, for the setting “Species/Cell Type: Allium cepa, Assay Type: Chromosome aberrations, Assay Code: ALC+, Evaluation Type: Evaluation A (Pre-1980)”, the mutagenic call is “active; positive”.
